The values that follow come from patent US7183252B2, “Indole peptidomimetics as thrombin receptor antagonists” (Ortho-McNeil Pharmaceutical, Inc., priority 1999, dated 2007).

In one test the test system is gel-filtered platelets. As to the kind of experiment: In vitro inhibition of thrombin-induced gel-filtered platelet aggregation. In kind it is cell-based. Conditions: human gel-filtered platelets, agonist thrombin 50 μL of 1 unit/mL, read-out: Thrmb IC50 (Thrombin-induced aggregation of gel-filtered platelets). The gist of the method:
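Gel-filtered (Sepharose 2B) human platelets from citrated PRP, 2×10^7 per sample, in Tyrode's buffer pH 7.4 with BSA and added calcium, preincubated with test compound. Aggregation induced by thrombin (50 μL of 1 unit/mL) and followed as light transmission over 3 min. Inhibition is taken relative to control-treated platelets.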

Test [1] has as its target T1, thrombin receptor (PAR-1) (Homo sapiens, UniProt P25116).
T1 construct: CHRF membranes (Jones, Biochim. Biophys. Acta 1992, 1136, 272) are thawed from −70° C; endogenous in cells; host or cells: CHRF cell membranes
T1 sequence (P25116 22-425): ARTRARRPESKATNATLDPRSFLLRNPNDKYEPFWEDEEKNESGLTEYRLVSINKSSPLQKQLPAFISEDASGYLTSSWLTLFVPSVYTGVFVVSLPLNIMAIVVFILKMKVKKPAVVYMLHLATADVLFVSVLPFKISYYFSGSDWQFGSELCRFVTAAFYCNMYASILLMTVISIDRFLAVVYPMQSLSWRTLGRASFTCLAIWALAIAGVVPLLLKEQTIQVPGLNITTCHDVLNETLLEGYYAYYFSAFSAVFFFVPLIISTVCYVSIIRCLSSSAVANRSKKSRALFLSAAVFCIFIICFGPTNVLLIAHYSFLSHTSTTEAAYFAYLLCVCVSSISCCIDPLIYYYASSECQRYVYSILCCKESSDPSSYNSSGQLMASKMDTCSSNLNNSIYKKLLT
As to the kind of experiment: In vitro thrombin receptor binding assay (CHRF membranes). Particulars: tritiated 721-40 radioligand, read-out: Bndg IC50 (Thrombin receptor binding). In a few lines: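 CHRF cell membranes incubated 30 min with tritiated peptide agonist 721–40 and compound at 3.7 μg/mL final (0.6% DMSO) in HEPES/MgCl2/BSA buffer. Nonspecific binding defined with unlabeled 721–40; bound radioactivity counted after filtration onto PEI-treated filters.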

Read-outs that look alike come from different tables or passages of the source.

Usually IC50 stands for the concentration that gives 50% inhibition. Take `COc1ccc(C[C@H](NC(=O)Nc2ccc3c(CN4CCCC4)cn(Cc4ccc(F)cc4)c3c2)C(=O)N[C@@H](CCCNC(=N)N)C(=O)NCCCc2ccccc2)cc1` [Compound 4]: the values for the IC50 (in the test with gel-filtered platelets (Platelet); in test [1]) were 14700 nM and 1300 nM, respectively.

On to `COc1ccc(C[C@H](NC(=O)Nc2ccc3c(CN(C)CCCN(C)C)cn(Cc4ccc(F)cc4)c3c2)C(=O)N[C@@H](CCCNC(=N)N)C(=O)NCc2ccccc2)cc1` [Compound 32], for which the 50% inhibitory concentration (IC50) amounted to 48600 nM in the test with gel-filtered platelets (Platelet) and 7300 nM in test [1].

With `COc1ccc(C[C@H](NC(=O)Nc2ccc3c(CN4CCCC4)cn(Cc4cccc(F)c4)c3c2)C(=O)N[C@@H](CCCNC(=N)N)C(=O)NCc2ccccc2)cc1` [Compound 6], the IC50 in the test on gel-filtered platelets (Platelet) is 3500 nM; in test [1] it was 6600 nM.

Turning to `COc1ccc(C[C@H](NC(=O)Nc2ccc3c(c2)c(CN2CCSC2)cn3Cc2ccc(F)cc2)C(=O)N[C@@H](CCCNC(=N)N)C(=O)NCc2ccccc2)cc1` [Compound 163], the IC50 in the test on gel-filtered platelets (Platelet) came out at 30000 nM; in test [1], 3000 nM.

As for `NCCC[C@H](NC(=O)[C@H](Cc1cccc(F)c1)NC(=O)Nc1ccc2c(CN3CCCC3)cn(Cc3c(Cl)cccc3Cl)c2c1)C(=O)NC1Cc2ccccc2C1` [Compound 96], the results for the IC50 (in the test on gel-filtered platelets (Platelet); in test [1]) were 1000 nM and 2800 nM, respectively.

With `COc1ccc(C[C@H](NC(=O)Nc2ccc3c(CN4CCCC4)cn(Cc4cccc(C)c4)c3c2)C(=O)N[C@@H](CCCNC(=N)N)C(=O)NCC2CCCCC2)cc1` [Compound 9], the concentration for half-maximal inhibition (IC50) in the test on gel-filtered platelets (Platelet) was determined as 2500 nM; in test [1] it was 10400 nM.

Consider `NCC[C@H](NC(=O)[C@H](Cc1cccs1)NC(=O)Nc1ccc2c(CN3CCCC3)cn(Cc3c(Cl)cccc3Cl)c2c1)C(=O)NCc1ccccc1` [Compound 131], for which the IC50 in the test on gel-filtered platelets (Platelet) amounted to 940 nM; in test [1], 1900 nM.

For the molecule `NCCC[C@H](NC(=O)[C@H](Cc1ccc(F)c(F)c1)NC(=O)Nc1ccc2c(CN3CCCC3)cn(Cc3c(Cl)cccc3Cl)c2c1)C(=O)NCCc1ccncc1` [Compound 109], the results for the half-maximal inhibitory concentration (IC50) (in the test with gel-filtered platelets (Platelet); in test [1]) were 840 nM and 610 nM, respectively.

For the molecule `COc1ccc(C[C@H](NC(=O)Nc2ccc3c(CN4CCCC4)cn(Cc4ccc(I)cc4)c3c2)C(=O)N[C@@H](CCCNC(=N)N)C(=O)NCc2ccccc2)cc1` [Compound 23], the IC50 came out at 8600 nM with gel-filtered platelets (Platelet) and 3100 nM in test [1].

In the case of `CCOC(=O)N1CCC(NC(=O)[C@H](CCN)NC(=O)[C@H](Cc2ccc(F)c(F)c2)NC(=O)Nc2ccc3c(CN4CCCC4)cn(Cc4c(Cl)cccc4Cl)c3c2)CC1` [Compound 144], the 50% inhibitory concentration (IC50) in the test on gel-filtered platelets (Platelet) turned out to be 320 nM; in test [1], 70 nM.

On to `NCCNC(=O)[C@H](Cc1cccc(F)c1)NC(=O)[C@H](Cc1ccc(F)c(F)c1)NC(=O)Nc1ccc2c(CN3CCCC3)cn(Cc3c(Cl)cccc3Cl)c2c1` [Compound 138], for which the 50% inhibitory concentration (IC50) in the test with gel-filtered platelets (Platelet) is 330 nM; in test [1] it was 2000 nM.

With `CN(C)CCC[C@H](NC(=O)[C@H](Cc1ccc(F)c(F)c1)NC(=O)Nc1ccc2c(CN3CCCC3)cn(Cc3c(Cl)cccc3Cl)c2c1)C(=O)NCc1ccccc1` [Compound 100], the concentration for half-maximal inhibition (IC50) with gel-filtered platelets (Platelet) was 600 nM; in test [1], 1300 nM.

On to `NCC[C@H](NC(=O)[C@H](CC1CCCCC1)NC(=O)Nc1ccc2c(CN3CCCC3)cn(Cc3c(Cl)cccc3Cl)c2c1)C(=O)NCc1ccccc1` [Compound 155], for which the results for the IC50 (with gel-filtered platelets (Platelet); in test [1]) were 11000 nM and 13500 nM, respectively.

Take `CCN(CC)Cc1cn(Cc2ccccc2C)c2cc(NC(=O)N[C@@H](Cc3ccc(N)cc3)C(=O)N[C@@H](CCCNC(=N)N)C(=O)NCc3ccccc3)ccc12` [Compound 35]: the IC50 in the test on gel-filtered platelets (Platelet) came out at 13000 nM; in test [1], 13100 nM.

Regarding `N=C(N)NCCC[C@H](NC(=O)[C@H](Cc1cccs1)NC(=O)Nc1ccc2c(CN3CCCC3)cn(Cc3ccc(F)cc3)c2c1)C(=O)NCc1ccccc1` [Compound 28], the 50% inhibitory concentration (IC50) in the test on gel-filtered platelets (Platelet) was 13800 nM; in test [1] it was 4100 nM.

For the molecule `NCCNC(=O)[C@H](Cc1ccncc1)NC(=O)[C@H](Cc1ccc(Cl)cc1)NC(=O)Nc1ccc2c(CN3CCCC3)cn(Cc3c(Cl)cccc3Cl)c2c1` [Compound 135, L-Alaninamide, 4-chloro-N-[[[1-[(2,6-dichlorophenyl)methyl]-3-(1-pyrrolidinylmethyl)-1H-indol-6-yl]amino]carbonyl]-L-phenylalanyl-N-(2-aminoethyl)-3-(4-pyridinyl)-], the concentration for half-maximal inhibition (IC50) came to 690 nM in the test on gel-filtered platelets and 890 nM in test [1].

For the molecule `CC(=N)NCCC[C@H](NC(=O)[C@H](Cc1ccc(F)c(F)c1)NC(=O)Nc1ccc2c(CN3CCCC3)cn(Cc3c(Cl)cccc3Cl)c2c1)C(=O)NCc1ccccc1` [Compound 95], the IC50 is 410 nM in the test with gel-filtered platelets (Platelet) and 370 nM in test [1].

For `CN(Cc1cn(Cc2c(Cl)cccc2Cl)c2cc(NC(=O)N[C@@H](Cc3ccc(Cl)cc3)C(=O)N[C@@H](CCCN)C(=O)NCCc3ccccc3Cl)ccc12)C1CCCC1` [Compound 119], the IC50 in the test with gel-filtered platelets (Platelet) was 3200 nM; in test [1], 6200 nM.

As for `COc1ccc(C[C@H](NC(=O)Nc2ccc3c(CN4CCCC4)cn(Cc4ccc(S(C)(=O)=O)cc4)c3c2)C(=O)N[C@@H](CCCNC(=N)N)C(=O)NCc2ccccc2)cc1` [Compound 12], the results for the IC50 (with gel-filtered platelets (Platelet); in test [1]) were 43200 nM and 15900 nM, respectively.

For `NCCC[C@H](NC(=O)[C@H](Cc1ccc(F)c(F)c1)NC(=O)Nc1ccc2c(CN3CCCC3)cn(Cc3c(Cl)cccc3Cl)c2c1)C(=O)NC1CCCC1` [Compound 125], the concentration for half-maximal inhibition (IC50) with gel-filtered platelets (Platelet) is 430 nM; in test [1] it was 660 nM.

`COC(=O)c1ccc(Cn2cc(CN3CCCCC3)c3ccc(NC(=O)N[C@@H](Cc4ccc(OC)cc4)C(=O)N[C@@H](CCCN=C(N)N)C(=O)NCC4CCCCC4)cc32)cc1` [Compound 10]: the IC50 in the test on gel-filtered platelets (Platelet) is over 10000 nM; in test [1], 4800 nM.

`NCCC[C@H](NC(=O)[C@H](Cc1ccc(F)c(F)c1)NC(=O)Nc1ccc2c(CN3CCCC3)cn(Cc3c(Cl)cccc3Cl)c2c1)C(=O)NCc1cccs1` [Compound 113]: the half-maximal inhibitory concentration (IC50) in the test on gel-filtered platelets (Platelet) came out at 720 nM; in test [1] it was 850 nM.

As for `N=C(N)NCCC[C@H](NC(=O)[C@H](Cc1ccc(F)c(F)c1)NC(=O)Nc1ccc2c(CN3CCCC3)cn(Cc3ccc(F)cc3)c2c1)C(=O)NC(c1ccccc1)c1ccccc1` [Compound 60], the 50% inhibitory concentration (IC50) with gel-filtered platelets (Platelet) amounted to 930 nM; in test [1] it was 2800 nM.

In the case of `NCCNC(=O)[C@H](CO)NC(=O)[C@H](Cc1ccc(F)c(F)c1)NC(=O)Nc1ccc2c(CN3CCCC3)cn(Cc3c(Cl)cccc3Cl)c2c1` [Compound 150], the concentration for half-maximal inhibition (IC50) in the test with gel-filtered platelets (Platelet) came to 1400 nM; in test [1] it was 100 nM.

On to `CCN(Cc1ccncc1)C(=O)[C@H](CCCN)NC(=O)[C@H](Cc1ccc(F)c(F)c1)NC(=O)Nc1ccc2c(CN3CCCC3)cn(Cc3c(Cl)cccc3Cl)c2c1` [Compound 110], for which the IC50 in the test with gel-filtered platelets (Platelet) turned out to be 3700 nM; in test [1] it was 2900 nM.

Regarding `N=C(N)NCCC[C@H](NC(=O)Nc1ccc2c(CN3CCCC3)cn(Cc3c(Cl)cccc3Cl)c2c1)C(=O)N[C@@H](Cc1ccc(F)c(F)c1)C(=O)NCc1ccccc1` [Compound 80], the values for the IC50 (in the test with gel-filtered platelets (Platelet); in test [1]) were 11300 nM and 5900 nM, respectively.

For `NCCNC(=O)CNC(=O)[C@H](Cc1cccc(F)c1)NC(=O)Nc1ccc2c(CN3CCCC3)cn(Cc3c(Cl)cccc3Cl)c2c1` [Compound 147], the results for the IC50 (with gel-filtered platelets (Platelet); in test [1]) were 4400 nM and 420 nM, respectively.

Consider `Nc1ccc(C[C@H](NC(=O)[C@H](Cc2ccc(F)c(F)c2)NC(=O)Nc2ccc3c(CN4CCCC4)cn(Cc4c(Cl)cccc4Cl)c3c2)C(=O)NCc2ccccc2)cc1` [Compound 106], for which the IC50 was 1100 nM in the test on gel-filtered platelets (Platelet) and 3300 nM in test [1].

In the case of `C=CCOC(=O)[C@H](CCCN)NC(=O)[C@H](Cc1ccc(F)c(F)c1)NC(=O)Nc1ccc2c(CN3CCCC3)cn(Cc3c(Cl)cccc3Cl)c2c1` [Compound 93], the IC50 turned out to be 740 nM in the test on gel-filtered platelets (Platelet) and 500 nM in test [1].

Turning to `NCCC[C@H](NC(=O)[C@H](Cc1ccc(F)c(F)c1)NC(=O)Nc1ccc2c(CN3CCCC3)cn(Cc3c(Cl)cccc3Cl)c2c1)C(=O)NCc1ccccn1` [Compound 117], the figures for the 50% inhibitory concentration (IC50) (in the test on gel-filtered platelets (Platelet); in test [1]) were 4100 nM and 1000 nM, respectively.

Take `NCCNC(=O)[C@H](Cc1c[nH]cn1)NC(=O)[C@H](Cc1ccc(Cl)cc1)NC(=O)Nc1ccc2c(CN3CCCC3)cn(Cc3c(Cl)cccc3Cl)c2c1` [Compound 134]: the results for the IC50 (in the test on gel-filtered platelets (Platelet); in test [1]) were 950 nM and 1200 nM, respectively.

As for `NCC[C@H](NC(=O)[C@H](Cc1ccc(Cl)cc1)NC(=O)Nc1ccc2c(CN3CCCC3)cn(Cc3c(Cl)cccc3Cl)c2c1)C(=O)NCc1ccccc1` [Compound 78], the IC50 in the test on gel-filtered platelets (Platelet) was 1300 nM; in test [1] it was 1500 nM.

Consider `N=C(N)NCCC[C@H](NC(=O)[C@H](Cc1ccc(F)c(F)c1)NC(=O)Nc1ccc2c(CN3CCCC3)c(-c3ccccc3)n(Cc3ccc(F)cc3)c2c1)C(=O)NCc1ccc(F)cc1` [Compound 171, L-Argininamide, 3,4-difluoro-N-[[[1-[(4-fluorophenyl)methyl]-2-phenyl-3-(1-pyrrolidinylmethyl)-1H-indol-6-yl]amino]carbonyl]-L-phenylalanyl-N-[(4-fluorophenyl)methyl]-], for which the values for the IC50 (in the test on gel-filtered platelets (Platelet); in test [1]) were 1000 nM and 100 nM, respectively.
